From ChEMBL document CHEMBL1150134, “Triterpenoid constituents isolated from the bark of Abies sachalinensis” (J Nat Prod, 2002) come the findings set out here.

The species entered for one experiment is Homo sapiens. Briefly: Inhibition of human DNA topoisomerase 1 at 200 uM.
The target in experiment [1] is T1, DNA topoisomerase 2-alpha (Homo sapiens, UniProt P11388). In words: Inhibition of human DNA topoisomerase 2alpha at 200 uM.
In experiment [2] the target is T1, DNA topoisomerase 2-alpha. Briefly: Inhibition of human DNA topoisomerase 2alpha.

Structures are written as SMILES. Activity calls are given as the source filed them. The rule behind the calls is not given here.

T1 sequence (P11388 whole entry): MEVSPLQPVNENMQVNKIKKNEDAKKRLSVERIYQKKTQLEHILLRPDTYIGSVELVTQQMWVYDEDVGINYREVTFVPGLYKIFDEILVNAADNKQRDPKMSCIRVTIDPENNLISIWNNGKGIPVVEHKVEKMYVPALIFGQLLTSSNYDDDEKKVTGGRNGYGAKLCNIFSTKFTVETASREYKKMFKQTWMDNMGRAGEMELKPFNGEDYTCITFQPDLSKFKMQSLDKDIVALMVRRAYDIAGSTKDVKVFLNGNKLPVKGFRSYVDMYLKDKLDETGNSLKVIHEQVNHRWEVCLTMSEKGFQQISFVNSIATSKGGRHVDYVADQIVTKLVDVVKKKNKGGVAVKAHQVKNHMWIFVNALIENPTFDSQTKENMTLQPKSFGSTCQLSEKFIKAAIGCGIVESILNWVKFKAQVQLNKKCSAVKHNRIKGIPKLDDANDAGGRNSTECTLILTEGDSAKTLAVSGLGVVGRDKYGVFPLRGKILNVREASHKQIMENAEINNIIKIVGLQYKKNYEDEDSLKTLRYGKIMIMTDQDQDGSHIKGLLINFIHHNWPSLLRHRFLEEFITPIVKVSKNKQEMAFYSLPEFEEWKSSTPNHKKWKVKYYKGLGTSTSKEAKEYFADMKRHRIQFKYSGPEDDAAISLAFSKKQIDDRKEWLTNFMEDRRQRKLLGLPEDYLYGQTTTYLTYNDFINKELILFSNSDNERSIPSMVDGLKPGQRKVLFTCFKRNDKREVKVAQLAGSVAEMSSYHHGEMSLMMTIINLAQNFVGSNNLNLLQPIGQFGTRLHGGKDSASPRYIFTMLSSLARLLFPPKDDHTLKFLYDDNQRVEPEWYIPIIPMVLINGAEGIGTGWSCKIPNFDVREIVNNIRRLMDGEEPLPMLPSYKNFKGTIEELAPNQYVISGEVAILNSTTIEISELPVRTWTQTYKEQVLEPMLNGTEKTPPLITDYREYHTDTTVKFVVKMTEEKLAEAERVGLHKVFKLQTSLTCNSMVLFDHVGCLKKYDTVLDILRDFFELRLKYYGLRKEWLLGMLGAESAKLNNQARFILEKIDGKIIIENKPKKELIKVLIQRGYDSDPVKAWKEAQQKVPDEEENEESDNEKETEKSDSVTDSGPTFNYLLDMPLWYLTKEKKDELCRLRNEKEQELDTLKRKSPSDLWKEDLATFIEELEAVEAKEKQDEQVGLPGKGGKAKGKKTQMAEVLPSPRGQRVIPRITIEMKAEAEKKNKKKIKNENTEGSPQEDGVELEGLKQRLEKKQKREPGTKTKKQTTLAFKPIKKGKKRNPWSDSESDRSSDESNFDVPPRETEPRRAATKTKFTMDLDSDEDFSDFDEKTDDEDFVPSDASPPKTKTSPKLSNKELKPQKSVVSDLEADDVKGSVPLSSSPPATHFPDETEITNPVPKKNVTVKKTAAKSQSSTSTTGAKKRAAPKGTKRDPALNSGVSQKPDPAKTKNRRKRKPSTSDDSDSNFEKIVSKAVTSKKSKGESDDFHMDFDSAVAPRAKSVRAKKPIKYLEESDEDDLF

With `C=C(C)[C@@H]1CC=C2[C@@H](CC[C@]3(C)[C@@H]([C@H](C)CC(=O)C[C@@H](C)C(=O)O)CC[C@@]23C)[C@@]1(C)CCC(=O)O`, in the experiment filed under Homo sapiens, the outcome was inactive. Besides, in experiment [1], the inhibition (in general, the drop in the measured response relative to a control, in per cent) turned out to be 4%.

Consider `C=C(C)[C@@H]1CC=C2[C@@H](CC[C@]3(C)[C@@H]([C@H](C)CC(=O)C[C@@H](C)C(=O)OC)CC[C@@]23C)[C@@]1(C)CCC(=O)OC`, for which, in experiment [2], the Activity entry was “Dose-dependent effect” and the IC50 (as a rule, the concentration needed to halve the response being measured) was 67.3 µM. Also, the result in the experiment filed under Homo sapiens was inactive. In addition, the outcome in experiment [1] was Active.

Turning to `C=C(C)[C@@H]1CC=C2[C@@H](CC[C@]3(C)[C@@H]([C@H](C)C[C@@H]4C[C@@H](C)C(=O)O4)CC[C@@]23C)[C@@]1(C)CCC(=O)O`, in experiment [2], the Activity entry was “Dose-dependent effect” and the IC50 amounted to 42.6 µM. In the experiment listed under Homo sapiens, the outcome was inactive. Also, in experiment [1], the outcome was Active.

Take `C=C(C)[C@@H]1CC=C2[C@@H](CC[C@]3(C)[C@@H]([C@H](C)C[C@H](O)C[C@@H](C)CO)CC[C@@]23C)[C@@]1(C)CCCO`: in experiment [2], the Activity entry was “Dose-dependent effect” and half-maximal inhibition (IC50) was put at 50.4 µM. For the same compound, the outcome in the experiment filed under Homo sapiens was inactive. Also, the result in experiment [1] was Active.

For the compound `C=C(C)[C@@H]1CC=C2[C@@H](CC[C@]3(C)[C@@H]([C@H](C)C[C@@H]4C[C@@H](C)C(=O)O4)CC[C@@]23C)[C@@]1(C)CCC(=O)OC`, in experiment [2], the Activity entry was “Dose-dependent effect” and the IC50 was 75.7 µM. In the experiment listed under Homo sapiens, the outcome was inactive. Besides, the result in experiment [1] was Active.
